Molecules are shown by their SMILES.

These results are taken from ChEMBL document CHEMBL5532660, “Lead Optimization of BIBR1591 To Improve Its Telomerase Inhibitory Activity: Design and Synthesis of Novel Four Chemical Series with In Silico, In Vitro, and In Vivo Preclinical Assessments” (J Med Chem, 2024).

Data set [1] concerns the target Telomerase reverse transcriptase (Homo sapiens) (UniProt O14746). Description: Inhibition of telomerase (unknown origin) by RT-qPCR analysis relative to control. The arrangement: concentration or dose not given beside the values. The note with it: concentration not given here. A general note: Real-time PCR tracks product formation cycle by cycle.
For data set [2], the system named is Huh-7. Description: Cytotoxicity against human Huh-7 cells overexpressing telomerase assessed as inhibition of cell growth incubated for 48 hrs by SRB assay. Format: functional, cell-based. The following applies: Huh-7, 48 h. Background: The SRB assay estimates cell density from bound dye.
Data set [3] relates to Huh-7. Description: Induction of apoptosis in human Huh-7 cells assessed as upregulation of p53 protein expression by measuring fold change by ELISA relative to control. Format: functional. On the technique in general: In an ELISA, binding on a coated surface is turned into a signal by an enzyme label.
Data set [4] in a line: Cytotoxicity against HSF cells assessed as reduction in cell viability upto 50 ug/ml incubated for 48 hrs by SRB assay. In kind it is toxicity, cell-based. The note with it: human, dose < 50 µg/ml.
A further data set concerns HepG2. Description: Cytotoxicity against human HepG2 cells overexpressing telomerase assessed as inhibition of cell growth incubated for 48 hrs by SRB assay. In kind it is functional, cell-based. The following applies: HepG2, 48 h.
The next data set has as its system NCI-H1299. Description: Cytotoxicity against human NCI-H1299 cells overexpressing telomerase assessed as inhibition of cell growth incubated for 48 hrs by SRB assay. The note with it: NCI-H1299, 48 h. Format: functional, cell-based.
The next data set deals with A549. Description: Cytotoxicity against human A549 cells overexpressing telomerase assessed as inhibition of cell growth incubated for 48 hrs by SRB assay. Format: functional, cell-based. The note with it: A549, 48 h.
The test system of data set [5] is Huh-7. Put plainly: Induction of apoptosis in human Huh-7 cells assessed as downregulation of BCL-2 protein expression by measuring fold change by ELISA relative to control. In kind it is functional.
The next data set has as its system NCI-H460. Put plainly: Cytotoxicity against human NCI-H460 cells overexpressing telomerase assessed as inhibition of cell growth incubated for 48 hrs by SRB assay. In kind it is functional, cell-based. The note with it: NCI-H460, 48 h.
Data set [6] has as its system Huh-7. Put plainly: Induction of apoptosis in human Huh-7 cells assessed as upregulation of BAX protein expression by measuring fold change by ELISA relative to control. In kind it is functional.
The test system of data set [7] is Ehrlich. Description: Antitumor activity against mouse EAC cells implanted in Swiss albino mouse assessed as reduction in total leukocytes count at 5 mg/kg, ip administered for 2 weeks relative to control. In kind it is functional. The arrangement: scale not given: the % may be the effect or the level left.
The test system of data set [8] is Ehrlich. Put plainly: Antitumor activity against mouse EAC cells implanted in Swiss albino mouse assessed as increase in hemoglobin level at 5 mg/kg, ip administered for 2 weeks relative to control. In kind it is functional.
For data set [9], the system named is Ehrlich. Put plainly: Antitumor activity against mouse EAC cells implanted in Swiss albino mouse assessed as reduction in tumor weight at 5 mg/kg, ip administered for 2 weeks and measured on day 5, 10 and 14 relative to control. Format: functional. Details: scale not given: the % may be the effect or the level left.
Data set [10] concerns Ehrlich. Put plainly: Antitumor activity against mouse EAC cells implanted in Swiss albino mouse assessed as necrosis at 5 mg/kg, ip administered for 2 weeks by H and E staining based light microscopic analysis (reference value: 0 to 25%). In kind it is functional.
The subject of data set [11] is Ehrlich. Description: Antitumor activity against mouse EAC cells implanted in Swiss albino mouse assessed as erythrocyte count at 5 mg/kg, ip administered for 2 weeks (reference value: 4.1 +/- 0.23 x 10^6/mm3). Format: functional.
For data set [12], the system named is Ehrlich. Put plainly: Antitumor activity against mouse EAC cells implanted in Swiss albino mouse assessed as reduction in tumor volume at 5 mg/kg, ip administered for 2 weeks and measured on day 5, 10 and 14 relative to control. In kind it is functional. The arrangement: scale not given: the % may be the effect or the level left.
Data set [13] has as its system Ehrlich. Put plainly: Antitumor activity against mouse EAC cells implanted in Swiss albino mouse assessed as reduction in total platelet count at 5 mg/kg, ip administered for 2 weeks relative to control. Format: functional. Details: scale not given: the % may be the effect or the level left.
Data set [14] deals with Ehrlich. Put plainly: Antitumor activity against mouse EAC cells implanted in Swiss albino mouse assessed as reduction in TNF-alpha level at 5 mg/kg, ip administered for 2 weeks by ELISA relative to control. Details: scale not given: the % may be the effect or the level left. In kind it is functional.
Data set [15] concerns Ehrlich. Put plainly: Antitumor activity against mouse EAC cells implanted in Swiss albino mouse assessed as increase in erythrocyte count at 5 mg/kg, ip administered for 2 weeks relative to control. In kind it is functional.
The subject of data set [16] is Ehrlich. Description: Antitumor activity against mouse EAC cells implanted in Swiss albino mouse assessed as increase in caspase-3 level in serum at 5 mg/kg, ip administered for 2 weeks by ELISA relative to control. Format: functional.
The test system of data set [17] is Ehrlich. Description: Antitumor activity against mouse EAC cells implanted in Swiss albino mouse assessed as total leukocyte count at 5 mg/kg, ip administered for 2 weeks (reference value: 7.11 +/- 0.27 x10^3/mm3). Format: functional.
Data set [18] has as its system Ehrlich. Description: Antitumor activity against mouse EAC cells implanted in Swiss albino mouse assessed as apoptotic cells at 5 mg/kg, ip administered for 2 weeks by H and E staining based light microscopic analysis (reference value: 25 to 50%). In kind it is functional.
Data set [19] concerns Ehrlich. Put plainly: Antitumor activity against mouse EAC cells implanted in Swiss albino mouse assessed as inflammatory cell infiltration at 5 mg/kg, ip administered for 2 weeks by H and E staining based light microscopic analysis (reference value: 0 to 25%). In kind it is functional.
The subject of data set [20] is Ehrlich. Put plainly: Antitumor activity against mouse EAC cells implanted in Swiss albino mouse assessed as mean corpuscular hemoglobin at 5 mg/kg, ip administered for 2 weeks (reference value: […] +/- 0.48 pg). In kind it is functional.
Data set [21] deals with Ehrlich. Put plainly: Antitumor activity against mouse EAC cells implanted in Swiss albino mouse assessed as appearance of granulation tissue at 5 mg/kg, ip administered for 2 weeks by H and E staining based light microscopic analysis (reference value: 0 to 25%). Format: functional.
In data set [22] the test system is Ehrlich. Put plainly: Antitumor activity against mouse EAC cells implanted in Swiss albino mouse assessed as mean corpuscular volume at 5 mg/kg, ip administered for 2 weeks (reference value: 46.78 +/- 0.43 fL). In kind it is functional.
Data set [23] concerns Ehrlich. Put plainly: Antitumor activity against mouse EAC cells implanted in Swiss albino mouse assessed as increase in serum SOD level at 5 mg/kg, ip administered for 2 weeks by ELISA relative to control. Format: functional.
For data set [24], the system named is Ehrlich. Put plainly: Antitumor activity against mouse EAC cells implanted in Swiss albino mouse assessed as platelet count at 5 mg/kg, ip administered for 2 weeks (reference value: 963.66 +/- 29.63 x10^3/mm3). In kind it is functional.
The subject of data set [25] is Ehrlich. Description: Antitumor activity against mouse EAC cells implanted in Swiss albino mouse assessed as intact anaplastic tumor cells at 5 mg/kg, ip administered for 2 weeks by H and E staining based light microscopic analysis (reference value: 75 to 100%). In kind it is functional.
The subject of data set [26] is Ehrlich. Description: Antitumor activity against mouse EAC cells implanted in Swiss albino mouse assessed as hemoglobin level at 5 mg/kg, ip administered for 2 weeks (reference value: 9.25 +/- 0.26 g/dL). In kind it is functional.

Telomerase reverse transcriptase (Homo sapiens), sequence (O14746 whole entry): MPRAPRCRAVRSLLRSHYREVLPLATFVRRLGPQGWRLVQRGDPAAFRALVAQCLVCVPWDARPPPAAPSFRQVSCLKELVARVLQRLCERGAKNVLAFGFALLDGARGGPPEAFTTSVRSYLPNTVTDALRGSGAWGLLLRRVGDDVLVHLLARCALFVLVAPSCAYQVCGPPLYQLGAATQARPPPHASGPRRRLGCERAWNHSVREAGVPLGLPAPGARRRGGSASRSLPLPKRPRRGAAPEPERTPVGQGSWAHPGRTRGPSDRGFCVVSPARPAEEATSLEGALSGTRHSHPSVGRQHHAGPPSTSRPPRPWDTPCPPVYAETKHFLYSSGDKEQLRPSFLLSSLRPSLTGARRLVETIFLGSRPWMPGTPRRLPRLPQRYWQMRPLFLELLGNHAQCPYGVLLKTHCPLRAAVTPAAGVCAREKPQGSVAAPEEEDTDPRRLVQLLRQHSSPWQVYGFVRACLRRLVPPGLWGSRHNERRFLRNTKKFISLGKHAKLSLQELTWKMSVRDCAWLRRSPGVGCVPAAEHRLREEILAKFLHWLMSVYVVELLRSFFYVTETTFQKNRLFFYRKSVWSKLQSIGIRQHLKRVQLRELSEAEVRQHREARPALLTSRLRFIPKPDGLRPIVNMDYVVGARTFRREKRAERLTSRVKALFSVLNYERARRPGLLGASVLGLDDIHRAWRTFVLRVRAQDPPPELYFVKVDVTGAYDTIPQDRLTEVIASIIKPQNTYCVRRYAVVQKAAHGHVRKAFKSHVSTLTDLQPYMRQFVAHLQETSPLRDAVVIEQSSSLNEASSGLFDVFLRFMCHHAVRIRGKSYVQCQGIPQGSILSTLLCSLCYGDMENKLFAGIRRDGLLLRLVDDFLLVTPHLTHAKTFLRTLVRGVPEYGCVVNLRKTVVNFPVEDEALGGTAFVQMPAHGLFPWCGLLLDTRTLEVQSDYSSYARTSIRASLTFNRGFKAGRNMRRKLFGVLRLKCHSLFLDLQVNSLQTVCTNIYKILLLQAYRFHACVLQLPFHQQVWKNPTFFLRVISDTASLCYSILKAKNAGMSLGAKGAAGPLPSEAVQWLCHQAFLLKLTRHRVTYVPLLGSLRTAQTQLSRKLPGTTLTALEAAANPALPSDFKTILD

The term inhibition denotes how much of the control response was suppressed. In [1], `N#Cc1ccc(NC(=O)CSc2nc(O)c(C#N)c(-c3cccnc3)n2)cc1` displayed an inhibition of 21.7%.

In the case of `N#Cc1c(O)nc(SCC(=O)Nc2ccc(Cl)c(C(F)(F)F)c2)nc1-c1cccnc1`, the inhibition in data set [1] stood at 8.91%.

`C/C(=C\C(=O)Nc1ccc(N2CCOCC2)cc1C(=O)O)c1ccc2ccccc2c1` gave an inhibition in [1] of 51.6%.

In turn, `C/C(=C\C(=O)Nc1ccccc1C(=O)O)c1ccc2ccccc2c1` showed an inhibition in data set [1] of 69.6%.

As for `N#Cc1c(O)nc(SCC(=O)Nc2cccc3ccccc23)nc1-c1cccnc1`, the inhibition in [1] was 34.5%.

For the compound `CC(=O)c1ccc(NC(=O)CSc2nc(O)c(C#N)c(-c3cccnc3)n2)cc1`, the inhibition in [1] was 30.2%.

In turn, `N#Cc1c(O)nc(SCC(=O)Nc2nc3ccccc3[nH]2)nc1-c1cccnc1` came in with an inhibition in data set [1] of 32.6%.

As usually defined, the IC50 is the concentration that gives 50% inhibition. Regarding `N#Cc1c(O)nc(SCC(=O)Nc2sc3c(c2C#N)CCC3)nc1-c1cccnc1`, the IC50 with Huh-7 [2] was determined as 25 µM; with HepG2 it was 41 µM; in the data set with NCI-H1299 it was 29 µM; with A549, 90 µM; in the data set with NCI-H460 it was 45 µM. For the same compound, the “fold change (FC)” value with Huh-7 [3] is recorded as 1.07; in the data set on Huh-7 [5] it was 0.8; in the data set on Huh-7 [6], 1.08. Moreover, in data set [4], the Activity result was “Non-Toxic”. In addition, the inhibition in [1] was determined as 58.6%.

In [1], `N#Cc1c(O)nc(SCC(=O)Nc2ccc3ccccc3c2)nc1-c1cccnc1` came in with an inhibition of 26%.

Regarding `N#Cc1c(O)nc(SCC(=O)Nc2cc(Cl)ccc2Cl)nc1-c1cccnc1`, in data set [1], the inhibition turned out to be 5.58%.

As for `N#Cc1c(O)nc(SCC(=O)Nc2cccc([N+](=O)[O-])c2)nc1-c1cccnc1`, the inhibition in [1] amounted to 28.1%.

Turning to `N#Cc1c(O)nc(SCC(=O)Nc2sc3c(c2C#N)CCCC3)nc1-c1cccnc1`, the IC50 with Huh-7 [2] amounted to 33 µM; with HepG2, 18 µM; in the data set on NCI-H1299, 23 µM; in the data set with A549 it was 86 µM; in the data set on NCI-H460, 41 µM. Further, the “fold change (FC)” value turned out to be 1.13 in the data set with Huh-7 [3], 0.77 with Huh-7 [5] and 1.14 in the data set with Huh-7 [6]. Moreover, the Activity result in data set [4] is recorded as “Non-Toxic”. Also, the inhibition in [1] was 55.6%.

For `COc1cccc2c1C(=O)c1c(O)c3c(c(O)c1C2=O)C[C@@](O)(C(=O)CO)C[C@@H]3O[C@H]1C[C@H](N)[C@H](O)[C@H](C)O1` [DOXORUBICIN], the Activity in the data set on Ehrlich [7] is listed as 37.27%; with Ehrlich [8], 21.94%; with Ehrlich [9] it was 62.52%; in the data set with Ehrlich [10], 50%; in the data set with Ehrlich [11], 5.93 10^6/mm3; with Ehrlich [12], 57.05%. The Activity was 44.94% with Ehrlich [13]; 64.14% with Ehrlich [14]; 44.63% with Ehrlich [15]; 64.95% in the data set on Ehrlich [16]; 4.46 10^3/mm3 with Ehrlich [17]; 50% in the data set on Ehrlich [18]. The Activity in the data set on Ehrlich [19] is 0%; in the data set on Ehrlich [20], 16.43 pg; in the data set on Ehrlich [21], 0%; with Ehrlich [22], 51.14 fL; with Ehrlich [23] it was 129.54%; in the data set with Ehrlich [24] it was 530.5 10^3/mm3. Also, the Activity in the data set on Ehrlich [25] was 25%; in the data set on Ehrlich [26] it was 11.28 g/dL.

`COc1ccc(NC(=O)CSc2nc(O)c(C#N)c(-c3cccnc3)n2)cc1`: the inhibition in data set [1] was 46.1%.

In [1], `N#Cc1c(O)nc(SCC(=O)Nc2nc3ccccc3s2)nc1-c1cccnc1` gave an inhibition of 32.1%.
